Source: paper PMC12892976, “Alkylation-based optimization of antifungal FPPS inhibitors yields a potent, broad-spectrum lipophilic zoledronate derivative” (mBio, 2025)
≈ marks a conversion by molar mass, not a printed value.

Columns and labels:
Scedosporium apiospermum = experiment: MIC broth microdilution (CLSI); type: cell-based; conditions: Scedosporium apiospermum 04-16-022-2268
Procedure: (§2) Antifungal susceptibility was determined by broth microdilution according to the CLSI guidelines described in M27-Ed4 ([16]).

Epidermophyton floccosum = experiment: checkerboard drug interaction (FICI, MICc);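 note: simplified diagonal checkerboard screen pairing antifungals with FPPS inhibitors, FICI calculated under the Loewe additivity model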
Procedure: (§3) Drug interactions between antifungals and FPPS inhibitors were investigated using a simplified checkerboard diagonal screening method ([45]). […] FICIs were determined according to the Loewe additivity model ([17]).

[1] = tested on: Cryptococcus bacillisporus; experiment: MIC broth microdilution (CLSI); type: cell-based; conditions: Cryptococcus bacillisporus NIH179
Procedure: as §2

Candida parapsilosis = experiment: checkerboard drug interaction (FICI, MICc); type: cell-based;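 note: simplified diagonal checkerboard screen pairing antifungals with FPPS inhibitors, with FICI computed under the Loewe additivity model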
Procedure: as §3

Rhizopus oryzae = experiment: MIC broth microdilution (CLSI); type: cell-based; conditions: Rhizopus oryzae 04-14-364-1703
Procedure: as §2

Trichophyton soudanense [2] = experiment: checkerboard drug interaction (FICI, MICc); type: cell-based;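 note: simplified diagonal checkerboard screen pairing antifungals with FPPS inhibitors, FICI computed under the Loewe additivity model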
Procedure: as §3

[3] = tested on: Trichophyton interdigitale; experiment: MIC broth microdilution (CLSI); type: cell-based; conditions: Trichophyton interdigitale R-234
Procedure: as §2

Trichophyton tonsurans = experiment: checkerboard drug interaction (FICI, MICc); type: cell-based;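 note: simplified diagonal checkerboard screen combining antifungals with FPPS inhibitors, with FICI calculated under the Loewe additivity model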
Procedure: as §3

Cryptococcus gattii [4] = experiment: MIC broth microdilution (CLSI); type: cell-based; conditions: Cryptococcus gattii PNG27
Procedure: as §2

Cryptococcus gattii [5] = experiment: checkerboard drug interaction (FICI, MICc); type: cell-based;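 note: simplified diagonal checkerboard screen pairing antifungals with FPPS inhibitors, FICI computed under the Loewe additivity model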
Procedure: as §3

Pseudomonas aeruginosa = experiment: antibacterial MIC; type: cell-based
Source text: (§1) […]; Table S3). […]. […] […].

Salmonella Typhimurium = experiment: antibacterial MIC; type: cell-based; conditions: Salmonella enterica
Source text: as §1

Streptococcus pyogenes = experiment: antibacterial MIC; type: cell-based
Source text: as §1

Aspergillus terreus = experiment: MIC broth microdilution (CLSI); type: cell-based; conditions: Aspergillus terreus 75-16-089-2500
Procedure: as §2

Aspergillus niger [6] = experiment: MIC broth microdilution (CLSI); type: cell-based; conditions: Aspergillus niger 111
Procedure: as §2

Fusarium solani = experiment: MIC broth microdilution (CLSI); conditions: Fusarium solani 04-16-056-1862
Procedure: as §2

Trichophyton soudanense [7] = experiment: MIC broth microdilution (CLSI); conditions: Trichophyton soudanense R-167
Procedure: as §2

Aspergillus parafelis = experiment: MIC broth microdilution (CLSI); type: cell-based; conditions: Aspergillus parafelis DTO 341-F2
Procedure: as §2

[8] = tested on: Cryptococcus deneoformans; experiment: checkerboard drug interaction (FICI, MICc); type: cell-based;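 note: simplified diagonal checkerboard screen pairing antifungals with FPPS inhibitors, FICI calculated under the Loewe additivity model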
Procedure: as §3

[9] = tested on: Aspergillus frankstonensis; experiment: MIC broth microdilution (CLSI); type: cell-based; conditions: Aspergillus frankstonensis DTO 341-F3
Procedure: as §2

[10] = tested on: Trichophyton interdigitale; experiment: checkerboard drug interaction (FICI, MICc);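 note: simplified diagonal checkerboard screen pairing antifungals with FPPS inhibitors, FICI values calculated under the Loewe additivity model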
Procedure: as §3

Aspergillus lentulus = experiment: MIC broth microdilution (CLSI); type: cell-based; conditions: Aspergillus lentulus DTO 341-G7
Procedure: as §2

[11] = tested on: Aspergillus frankstonensis; experiment: checkerboard drug interaction (FICI, MICc);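 note: simplified diagonal checkerboard screen pairing antifungals with FPPS inhibitors, FICI calculated using the Loewe additivity model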
Procedure: as §3

Nannizzia gypsea = experiment: MIC broth microdilution (CLSI); type: cell-based; conditions: Nannizzia gypsea R-131
Procedure: as §2

Mucor circinelloides = experiment: MIC broth microdilution (CLSI); type: cell-based; conditions: Mucor circinelloides 80-14-240-5007
Procedure: as §2

Aspergillus niger [12] = experiment: checkerboard drug interaction (FICI, MICc); type: cell-based;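 note: simplified diagonal checkerboard screen pairing antifungals with FPPS inhibitors, FICI calculated under the Loewe additivity model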
Procedure: as §3

## O=P(O)(O)C(O)(Cn1ccnc1)P(=O)(O)O [ZOL, zoledronate]
Scedosporium apiospermum
  MIC / MEC: 256 mg/L (≈ 941 µM)
Epidermophyton floccosum; 5FC:ZOL
  FICI: 1.5
Epidermophyton floccosum; AMB:ZOL
  FICI: 1
Epidermophyton floccosum; CAS:ZOL
  FICI: 2.17
Epidermophyton floccosum; FLC:ZOL
  FICI: 0.63
Epidermophyton floccosum; ITR:ZOL
  FICI: 0.63
Epidermophyton floccosum; KET:ZOL
  FICI: 0.5
Epidermophyton floccosum; VOR:ZOL
  FICI: 1.13
Epidermophyton floccosum; ZOL with 5FC
  bisphosphonate MICc: 64
Epidermophyton floccosum; ZOL with AMB
  bisphosphonate MICc: 32
Epidermophyton floccosum; ZOL with CAS
  bisphosphonate MICc: 16
Epidermophyton floccosum; ZOL with FLC
  bisphosphonate MICc: 8
Epidermophyton floccosum; ZOL with ITR
  bisphosphonate MICc: 8
Epidermophyton floccosum; ZOL with KET
  bisphosphonate MICc: 16
Epidermophyton floccosum; ZOL with VOR
  bisphosphonate MICc: 8
[1]
  MIC / MEC: 128 mg/L (≈ 470 µM)
Candida parapsilosis; 5FC:ZOL
  FICI: 1
Candida parapsilosis; AMB:ZOL
  FICI: 1.5
Candida parapsilosis; CAS:ZOL
  FICI: 0.75
Candida parapsilosis; FLC:ZOL
  FICI: 0.38
Candida parapsilosis; ITR:ZOL
  FICI: 0.5
Candida parapsilosis; KET:ZOL
  FICI: 0.53
Candida parapsilosis; VOR:ZOL
  FICI: 1.21
Candida parapsilosis; ZOL with 5FC
  bisphosphonate MICc: 64
Candida parapsilosis; ZOL with AMB
  bisphosphonate MICc: 64
Candida parapsilosis; ZOL with CAS
  bisphosphonate MICc: 32
Candida parapsilosis; ZOL with FLC
  bisphosphonate MICc: 32
Candida parapsilosis; ZOL with ITR
  bisphosphonate MICc: 32
Candida parapsilosis; ZOL with KET
  bisphosphonate MICc: 4
Candida parapsilosis; ZOL with VOR
  bisphosphonate MICc: 32
Rhizopus oryzae
  MIC / MEC: >256 mg/L
Trichophyton soudanense [2]; 5FC:ZOL
  FICI: 3
Trichophyton soudanense [2]; AMB:ZOL
  FICI: 3
Trichophyton soudanense [2]; CAS:ZOL
  FICI: 3
Trichophyton soudanense [2]; FLC:ZOL
  FICI: 0.75
Trichophyton soudanense [2]; ITR:ZOL
  FICI: 0.75
Trichophyton soudanense [2]; KET:ZOL
  FICI: 0.38
Trichophyton soudanense [2]; VOR:ZOL
  FICI: 0.49
Trichophyton soudanense [2]; ZOL with 5FC
  bisphosphonate MICc: 128
Trichophyton soudanense [2]; ZOL with AMB
  bisphosphonate MICc: 128
Trichophyton soudanense [2]; ZOL with CAS
  bisphosphonate MICc: 64
Trichophyton soudanense [2]; ZOL with FLC
  bisphosphonate MICc: 16
Trichophyton soudanense [2]; ZOL with ITR
  bisphosphonate MICc: 16
Trichophyton soudanense [2]; ZOL with KET
  bisphosphonate MICc: 8
Trichophyton soudanense [2]; ZOL with VOR
  bisphosphonate MICc: 16
[3]
  MIC / MEC: 256 mg/L (≈ 941 µM)
Trichophyton tonsurans; 5FC:ZOL
  FICI: 2
Trichophyton tonsurans; AMB:ZOL
  FICI: 3.92
Trichophyton tonsurans; CAS:ZOL
  FICI: 1
Trichophyton tonsurans; FLC:ZOL
  FICI: 0.31
Trichophyton tonsurans; ITR:ZOL
  FICI: 0.38
Trichophyton tonsurans; KET:ZOL
  FICI: 0.25
Trichophyton tonsurans; VOR:ZOL
  FICI: 0.61
Trichophyton tonsurans; ZOL with 5FC
  bisphosphonate MICc: 128
Trichophyton tonsurans; ZOL with AMB
  bisphosphonate MICc: 256
Trichophyton tonsurans; ZOL with CAS
  bisphosphonate MICc: 64
Trichophyton tonsurans; ZOL with FLC
  bisphosphonate MICc: 8
Trichophyton tonsurans; ZOL with ITR
  bisphosphonate MICc: 16
Trichophyton tonsurans; ZOL with KET
  bisphosphonate MICc: 16
Trichophyton tonsurans; ZOL with VOR
  bisphosphonate MICc: 16
Cryptococcus gattii [4]
  MIC / MEC: 128 mg/L (≈ 470 µM)
Cryptococcus gattii [5]; 5FC:ZOL
  FICI: 1.25
Cryptococcus gattii [5]; AMB:ZOL
  FICI: 1.5
Cryptococcus gattii [5]; CAS:ZOL
  FICI: ≥4
Cryptococcus gattii [5]; FLC:ZOL
  FICI: 0.38
Cryptococcus gattii [5]; ITR:ZOL
  FICI: 0.63
Cryptococcus gattii [5]; KET:ZOL
  FICI: 1.03
Cryptococcus gattii [5]; VOR:ZOL
  FICI: 1.25
Cryptococcus gattii [5]; ZOL with 5FC
  bisphosphonate MICc: 128
Cryptococcus gattii [5]; ZOL with AMB
  bisphosphonate MICc: 64
Cryptococcus gattii [5]; ZOL with CAS
  bisphosphonate MICc: 256
Cryptococcus gattii [5]; ZOL with FLC
  bisphosphonate MICc: 32
Cryptococcus gattii [5]; ZOL with ITR
  bisphosphonate MICc: 16
Cryptococcus gattii [5]; ZOL with KET
  bisphosphonate MICc: 4
Cryptococcus gattii [5]; ZOL with VOR
  bisphosphonate MICc: 32
Pseudomonas aeruginosa
  MIC: > 256 µg/mL
Salmonella Typhimurium
  MIC: 256 µg/mL (≈ 941 µM)
Streptococcus pyogenes
  MIC: 256 µg/mL (≈ 941 µM)
Aspergillus terreus
  MIC / MEC: 128 mg/L (≈ 470 µM)
Aspergillus niger [6]
  MIC / MEC: >256 mg/L
Fusarium solani
  MIC / MEC: 256 mg/L (≈ 941 µM)
Trichophyton soudanense [7]
  MIC / MEC: 64 mg/L (≈ 235 µM)
Aspergillus parafelis
  MIC / MEC: >256 mg/L
[8]; 5FC:ZOL
  FICI: 0.38
[8]; AMB:ZOL
  FICI: 0.63
[8]; CAS:ZOL
  FICI: 1
[8]; FLC:ZOL
  FICI: 0.5
[8]; ITR:ZOL
  FICI: 2.09
[8]; KET:ZOL
  FICI: 0.37
[8]; VOR:ZOL
  FICI: 1.54
[8]; ZOL with 5FC
  bisphosphonate MICc: 16
[8]; ZOL with AMB
  bisphosphonate MICc: 16
[8]; ZOL with CAS
  bisphosphonate MICc: 64
[8]; ZOL with FLC
  bisphosphonate MICc: 32
[8]; ZOL with ITR
  bisphosphonate MICc: 1
[8]; ZOL with KET
  bisphosphonate MICc: 16
[8]; ZOL with VOR
  bisphosphonate MICc: 64
[9]
  MIC / MEC: 128 mg/L (≈ 470 µM)
[10]; 5FC:ZOL
  FICI: 2
[10]; AMB:ZOL
  FICI: 3
[10]; CAS:ZOL
  FICI: 1.25
[10]; FLC:ZOL
  FICI: 0.5
[10]; ITR:ZOL
  FICI: 0.27
[10]; KET:ZOL
  FICI: 0.5
[10]; VOR:ZOL
  FICI: 0.38
[10]; ZOL with 5FC
  bisphosphonate MICc: 256
[10]; ZOL with AMB
  bisphosphonate MICc: 256
[10]; ZOL with CAS
  bisphosphonate MICc: 64
[10]; ZOL with FLC
  bisphosphonate MICc: 64
[10]; ZOL with ITR
  bisphosphonate MICc: 4
[10]; ZOL with KET
  bisphosphonate MICc: 64
[10]; ZOL with VOR
  bisphosphonate MICc: 32
Aspergillus lentulus
  MIC / MEC: >256 mg/L
[11]; 5FC:ZOL
  FICI: ≥4
[11]; AMB:ZOL
  FICI: 2
[11]; CAS:ZOL
  FICI: ≥4
[11]; FLC:ZOL
  FICI: 0.56
[11]; ITR:ZOL
  FICI: 1.25
[11]; KET:ZOL
  FICI: 1
[11]; VOR:ZOL
  FICI: 1.13
[11]; ZOL with 5FC
  bisphosphonate MICc: 256
[11]; ZOL with AMB
  bisphosphonate MICc: 128
[11]; ZOL with CAS
  bisphosphonate MICc: 256
[11]; ZOL with FLC
  bisphosphonate MICc: 8
[11]; ZOL with ITR
  bisphosphonate MICc: 32
[11]; ZOL with KET
  bisphosphonate MICc: 64
[11]; ZOL with VOR
  bisphosphonate MICc: 16
Nannizzia gypsea
  MIC / MEC: 256 mg/L (≈ 941 µM)
Mucor circinelloides
  MIC / MEC: 64 mg/L (≈ 235 µM)
Aspergillus niger [12]; 5FC:ZOL
  FICI: 3
Aspergillus niger [12]; AMB:ZOL
  FICI: 0.98
Aspergillus niger [12]; CAS:ZOL
  FICI: 2
Aspergillus niger [12]; FLC:ZOL
  FICI: 2
Aspergillus niger [12]; ITR:ZOL
  FICI: 0.56
Aspergillus niger [12]; KET:ZOL
  FICI: 1
Aspergillus niger [12]; VOR:ZOL
  FICI: 1.02
Aspergillus niger [12]; ZOL with 5FC
  bisphosphonate MICc: 512
Aspergillus niger [12]; ZOL with AMB
  bisphosphonate MICc: 8
Aspergillus niger [12]; ZOL with CAS
  bisphosphonate MICc: 512
Aspergillus niger [12]; ZOL with FLC
  bisphosphonate MICc: 512
Aspergillus niger [12]; ZOL with ITR
  bisphosphonate MICc: 32
Aspergillus niger [12]; ZOL with KET
  bisphosphonate MICc: 256
Aspergillus niger [12]; ZOL with VOR
  bisphosphonate MICc: 8
